Test results as given in PubChem BioAssay (NCI).
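1) Cells in 96-well plates. 2) Compound, 48 h, 5 concentrations. 3) Linear interpolation between surrounding doses. 4) Unreached endpoint = highest concentration. The concentration for 50% growth inhibition is given as GI50. At the TGI there is no net growth.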 Non-standard residues stand in square brackets, D forms with d. Residues, ends and D or L forms follow the SMILES beside them. *: point of attachment. ONb = O=[N+]([O-])c1ccc(CO*)cc1; AllylGly = C=CC[CH](N)C(=O)O; Boc = CC(C)(C)OC(=O)*

Key:
Test in all cases: NCI anticancer screen, dose series, 48 h
SF-268 CNS = system: SF-268 CNS
COLO 205 colon = system: COLO 205 colon
KM12 colon = system: KM12 colon
HCT-15 colon = system: HCT-15 colon
TK-10 renal = system: TK-10 renal
CAKI-1 renal = system: CAKI-1 renal
HOP-62 NSCLC = system: HOP-62 NSCLC
HCT-116 colon = system: HCT-116 colon
DU-145 prostate = system: DU-145 prostate
MCF7 breast = system: MCF7 breast

| SMILES | TGI (SF-268 CNS) | TGI (COLO 205 colon) | TGI (KM12 colon) [µM] | TGI (HCT-15 colon) [µM] | TGI (TK-10 renal) [µM] | TGI (CAKI-1 renal) | TGI (HOP-62 NSCLC) [µM] | TGI (HCT-116 colon) [µM] | GI50 (DU-145 prostate) [µM] | TGI (DU-145 prostate) [µM] | GI50 (SF-268 CNS) | GI50 (CAKI-1 renal) | GI50 (KM12 colon) [µM] | GI50 (HOP-62 NSCLC) [µM] | GI50 (HCT-116 colon) [µM] | GI50 (TK-10 renal) | GI50 (COLO 205 colon) | GI50 (HCT-15 colon) [µM] | GI50 (MCF7 breast) [µM] | TGI (MCF7 breast) [µM] |
| --- | --- | --- | --- | --- | --- | --- | --- | --- | --- | --- | --- | --- | --- | --- | --- | --- | --- | --- | --- | --- |
| CC1=C(C)C(=O)c2c(cc3ccc4ccccc4n23)C1=O | > 100 µM | > 100 µM | > 100 | > 100 | > 100 |  |  |  |  |  |  |  |  |  |  |  |  |  |  |  |
| CC(=O)O/C=C(/C=C/OC(C)=O)C(C/C=C(\C)C#CC=C(C)C)OC(C)=O (configuration not stated) | > 100 µM | 68.5 µM | 61.5 | 50.3 | > 100 | > 100 µM | > 100 | 39 |  |  |  |  |  |  |  |  |  |  |  |  |
| Cn1c(=O)nc2n(-c3ccc(Cl)cc3)c3ccc(Cl)cc3nc-2c1=O | 19.7 µM |  | 32 | 26.5 | 53.6 | 25.9 µM | 49.5 | 20.9 |  |  |  |  |  |  |  |  |  |  |  |  |
| CCOC(=O)c1c2c(n3ccc(NC(=O)CCN4CCCC4)cc13)C(=O)c1ncccc1C2=O | 2.65 µM |  | 3.32 |  | 2.61 | 1.55 µM | 3.11 | 1.94 | 1.46 | 2.96 | 0.794 µM | 0.181 µM | 1.52 | 1.08 | 0.175 | 1.26 µM |  |  |  |  |
| Cc1cc2c(c(C#N)c1C)NC(=O)CCC2=O |  | > 100 µM | > 100 | > 100 |  | > 100 µM | > 100 | > 100 |  |  |  |  |  |  |  |  |  |  |  |  |
| C=CCC(NC(=O)OC(C)(C)C)C(=O)NC(CCC(=O)OCc1ccc([N+](=O)[O-])cc1)C(N)=O (configuration not stated) (Boc-[AllylGly]-Glu(ONb)-NH2; configuration not given here) | 49.7 µg/mL | 53.1 µg/mL |  |  |  | 54.5 µg/mL |  |  |  |  | 21.8 µg/mL | 19.1 µg/mL |  |  |  | 34.3 µg/mL | 22.9 µg/mL |  |  |  |
| O=C(Oc1ccc(Cl)cc1Cl)c1ccccc1Nc1ccnc(C(F)(F)F)c1 | 13.6 µM |  | 21.1 | 5.31 | 23.9 | 4.14 µM |  |  | 15.7 | 30.6 | 3.11 µM | 2.1 µM | 3.69 |  |  | 4.05 µM |  | 2.26 | 3.61 | 17.2 |
| Cc1nc2c(nc1C)C(=O)c1cc(O)ccc1C2=O | > 100 µM | 45.2 µM | > 100 | > 67.3 | > 100 | > 100 µM | > 100 | > 100 |  |  |  |  |  |  |  |  |  |  |  |  |
| COc1cc2c3c(n(C)c(=O)c2cc1OC)-c1cc2c(cc1/C3=C\CCCCCN)OCO2 | 47.9 µM | > 100 µM | 90.1 | 12.7 | 22.5 | 54.2 µM | > 45.9 |  | 1.88 | 23.1 | 3.92 µM | 1.63 µM | < 0.01 | 0.612 |  |  | 5.8 µM | 1.58 |  |  |
| Cc1ccc(-[n+]2c3cc(N)c(C)cc3nc3cc(C)c(Nc4ccccc4)cc32)cc1 |  | 0.326 µM | 0.3 |  | 1.04 | 0.461 µM | 0.397 |  | 0.0534 | 1.08 |  | 0.173 µM | 0.0767 | 0.0472 |  | 0.148 µM | 0.0461 µM |  |  |  |
| O=C(CNc1nncs1)NO | > 100 µM | > 100 µM | > 100 | > 100 | > 100 |  | > 100 | > 100 |  |  |  |  |  |  |  |  |  |  |  |  |
| CCOc1ccccc1NC(=O)C(=O)CC(=O)c1c(C)n([O-])c2ccccc2[n+]1=O | > 100 µM | > 100 µM | > 100 | > 100 | > 100 | > 100 µM | > 100 | > 100 |  |  |  |  |  |  |  |  |  |  |  |  |
| N#Cc1c(Sc2ccccc2N)cccc1Sc1ccccc1N |  |  |  |  |  |  |  |  |  |  | 38.4 µM | 60.8 µM | 66.7 |  | 71.9 |  | 34.9 µM | 55.6 | 27.9 |  |
| Cn1c2c(c3ccccc31)CCN(CCCCN1CCc3c(n(C)c4ccccc34)C1=O)C2 | > 100 µM | > 100 µM |  | > 100 | > 100 | > 100 µM | > 100 | > 100 |  |  |  |  |  |  |  |  |  |  |  |  |
| Cc1cnc2c(C)ccc([N+](=O)[O-])c2c1NCCCN(C)C | > 100 µM | > 100 µM | > 100 | > 100 | > 100 | > 100 µM | > 100 | > 100 |  |  |  |  |  |  |  |  |  |  |  |  |
| COc1cc(OC)c([C@@H]2OC(=O)C3C2C(=O)O[C@H]3c2cc(OC)c(OC)cc2OC)cc1OC (some centres not stated) |  | > 100 µM | > 100 | > 100 |  | > 100 µM | > 100 | > 100 |  |  |  |  |  |  |  |  |  |  |  |  |
| Cc1cc(C)nc(NS(=O)(=O)c2ccc(Nc3c4ccccc4nc4c(C(=O)Nc5ccc(S(=O)(=O)N=C(N)N)cc5)ccc(Cl)c34)cc2)n1 | 97.2 µM | > 100 µM | > 100 |  | 95.5 | > 100 µM | 54.8 | 51.5 |  |  |  |  |  |  |  |  |  |  |  |  |
| CC1OC(OCC2OC(Oc3c(-c4ccc(O)cc4)oc4cc(O)cc(O)c4c3=O)C(OC3OCC(O)(CO)C3O)C(O)C2O)C(O)C(O)C1O (configuration not stated) | > 100 µM | > 100 µM | > 100 | 53.2 | > 100 | > 100 µM | > 100 | > 100 |  |  |  |  |  |  |  |  |  |  |  |  |
| Nc1ccn(CCOC(=O)c2ccccc2)c(=O)n1 | > 100 µM | > 100 µM | > 100 | > 100 | > 100 | > 100 µM | > 100 | > 100 |  |  |  |  |  |  |  |  |  |  |  |  |
| C=C1C(=O)O[C@H]2[C@H]1CC/C(Cn1cc(CNC(=O)Cc3cn(C(=O)c4ccc(Cl)cc4)c4ccc(OC)cc34)nn1)=C\CC[C@@]1(C)O[C@@H]21 | 3.52 µM | 4.22 µM | 7.23 | 10.7 | 3.24 | 2.89 µM | 15.1 | 2.55 | 1.75 | 3.35 | 1.7 µM | 1.49 µM | 2.78 | 3.91 | 1.19 | 1.77 µM | 2.04 µM | 2.77 |  |  |
| COc1cc(CCc2ccc(OCCN(C)C)cc2)cc(OC)c1OC | > 100 µM | 38.9 µM | > 100 | > 100 | > 100 | > 100 µM | > 100 | > 100 |  |  |  |  |  |  |  |  |  |  |  |  |
| O=[N+]([O-])c1ccc(C(c2c[nH]c3ccccc23)c2c[nH]c3ccccc23)cc1 | 22.5 µM | 21.8 µM | 28.1 | 29.7 | 28.5 |  | 30.3 |  |  | 20.6 |  |  |  |  |  |  |  |  |  | 7.4 |
| O=C(O)c1c(-c2cccc3ccccc23)sc(-c2cccc3ccccc23)c1C(=O)O | > 100 µM | > 100 µM | > 100 | > 100 | > 100 |  |  | > 100 |  |  |  |  |  |  |  |  |  |  |  |  |
